Assay results published in patent US9963462B2 (priority 2015, dated 2018).

Key:
[1] = molecular target: SNAP-hSPR (sepiapterin reductase, SPR) (Homo sapiens, UniProt P35270); experiment: biochemical; assay type: binding; conditions: terbium labelled SNAP-hSPR / SSZ labelled SNAP-EGFP; read-out: hTR-FRET IC50
[2] = tested on: BH4 production in human peripheral blood mononuclear cells (PBMCs); experiment: hPBMC assay, inhibition of BH4 production by LC-MS (anti-CD3/anti-CD28 stimulated); assay type: cell-based; conditions: PBMC, read-out: hPBMC IC50
Method: hPBMC Assay: PBMCs were either purchased or isolated from fresh human blood and used either as a fresh preparation or frozen for later use. The assay system was prepared by pre-treating the assay plates overnight with a solution containing anti-human CD3 antibody. Human PBMCs were suspended in assay medium and plated into the assay plates at a density of 1-4×10^5 cells per well. The desired concentration of the test compound was added to each well. A solution of human anti-CD28 antibody was also added to each well. Plates were incubated for 12-48 hours at 37° C. and 5% CO2. Assay plates were centrifuged for 5-15 minutes at 1-3000 RMP and supernatants were removed. The cells were lysed, sealed and used directly or frozen at −80° C. LC-MS was used to quantify the amount of inhibition of BH4 production.
PBMCs were either purchased or isolated from fresh human blood and used either as a fresh preparation or frozen for later use. The assay system was prepared by pre-treating the assay plates overnight with a solution containing anti-human CD3 antibody. Human PBMCs were suspended in assay medium and plated into the assay plates at a density of 1-4×10^5 cells per well. The desired concentration of the test compound was added to each well. A solution of human anti-CD28 antibody was also added to each well. Plates are incubated for 12-48 hours at 37° C. and 5% CO2. Assay plates were centrifuged for 5-15 minutes at 1-3000 RMP and supernatants were removed. The cells were lysed, sealed and used directly or frozen at −80° C.

Chain of SNAP-hSPR (sepiapterin reductase, SPR) (P35270 whole entry): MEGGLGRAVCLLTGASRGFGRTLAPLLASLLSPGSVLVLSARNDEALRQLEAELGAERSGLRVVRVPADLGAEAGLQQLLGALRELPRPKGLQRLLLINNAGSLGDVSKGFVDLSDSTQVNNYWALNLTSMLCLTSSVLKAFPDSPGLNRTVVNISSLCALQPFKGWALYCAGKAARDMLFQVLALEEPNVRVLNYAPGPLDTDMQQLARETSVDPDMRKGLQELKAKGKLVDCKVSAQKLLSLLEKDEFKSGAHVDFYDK

| Structure (SMILES) | IC50 [1] [µM] | IC50 [2] [µM] |
| --- | --- | --- |
| Cc1c(C(=O)N2CC3CCCC(C2)C3(O)C(F)(F)F)cnn1-c1nn2cccc2c(=O)[nH]1 (stereo not shown) [Q-1109] | 0.001 | 0.046 |
| C=CCC(C#N)(CC=C)C1CCN(C(=O)c2cnn(-c3nn4cccc4c(=O)[nH]3)c2C)CC1 [Q-1110] | 0.002 | 0.043 |
| Cc1c(C(=O)N2CCC(c3cccnc3Cl)CC2)cnn1-c1nn2cccc2c(=O)[nH]1 [Q-1111] | 0.001 | 0.015 |
| CCC(=O)C1CCN(C(=O)c2cnn(-c3nn4cccc4c(=O)[nH]3)c2C)CC1 [Q-1112] | 0.001 | 0.037 |
| CCC(=O)C1CCN(C(=O)c2cnn(-c3nc4c(c(=O)[nH]3)CCC4)c2C)CC1 [Q-1113] | 0.001 | 0.016 |
| Cc1c(C(=O)N2C3CCC2CN(C2CCC2)C3)cnn1-c1nn2cccc2c(=O)[nH]1 [Q-1114] | 0.001 | 0.024 |
| Cc1c(C(=O)N2CCC(c3ccc(F)cn3)CC2)cnn1-c1nn2cccc2c(=O)[nH]1 [Q-1115] | 0.001 | 0.045 |
| Cc1c(C(=O)N2CCC(c3ccc(Cl)nc3)CC2)cnn1-c1nn2cccc2c(=O)[nH]1 [Q-1116] | 0.001 | 0.076 |
| Cc1c(C(=O)N2CCC(c3cccc(F)n3)CC2)cnn1-c1nn2cccc2c(=O)[nH]1 [Q-1117] | 0.001 | 0.02 |
| Cc1c(C(=O)N2CCCC(O)(C(F)(F)F)CC2)cnn1-c1nn2cccc2c(=O)[nH]1 (stereo not shown) [Q-1118] | 0.001 | 0.11 |
| Cc1c(C(=O)N2CCCC(F)(F)CC2)cnn1-c1nn2cccc2c(=O)[nH]1 [Q-1119] | 0.002 | 0.37 |
| Cc1c(C(=O)N2CCN(C3CCC3(F)F)CC2)cnn1-c1nn2cccc2c(=O)[nH]1 (stereo not shown) [Q-1120] | 0.001 | 0.097 |
| Cc1c(C(=O)N2CC(c3cccc(F)n3)C2)cnn1-c1nn2cccc2c(=O)[nH]1 [Q-1121] | 0.001 | 0.07 |
| Cc1c(C(=O)N2C3CCC2CC(C(F)(F)F)C3)cnn1-c1nn2cccc2c(=O)[nH]1 (stereo not shown) [Q-1122] | 0.001 | 0.025 |
| Cc1c(C(=O)N2CC3CCCC(C2)C3C(F)(F)F)cnn1-c1nn2cccc2c(=O)[nH]1 (stereo not shown) [Q-1123] | 0.001 | 0.057 |
| Cc1c(C(=O)N2CCCC(C(F)(F)F)CC2)cnn1-c1nn2cccc2c(=O)[nH]1 (stereo not shown) [Q-1124] | 0.001 | 0.035 |
| Cc1nn(-c2nn3cccc3c(=O)[nH]2)cc1C(=O)N1CCN(CC(F)(F)F)CC1 [Q-1125] | 0.006 | 0.1 |
| C=C1C2CCCC1CN(C(=O)c1cnn(-c3nn4cccc4c(=O)[nH]3)c1C)C2 [Q-1126] | 0.001 | 0.048 |
| Cc1c(C(=O)N2CC(c3ccc(F)cn3)C2)cnn1-c1nn2cccc2c(=O)[nH]1 [Q-1128] | 0.002 | 0.048 |
| Cc1c(C(=O)N2CC(c3cncc(F)c3)C2)cnn1-c1nn2cccc2c(=O)[nH]1 [Q-1129] | 0.002 | 0.05 |
| Cc1c(C(=O)N2CC3CCC(C2)C3C(F)(F)F)cnn1-c1nn2cccc2c(=O)[nH]1 (stereo not shown) [Q-1130] | 0.001 | 0.057 |
| Cc1c(C(=O)N2CCC(C(C(F)F)C(F)(F)F)CC2)cnn1-c1nn2cccc2c(=O)[nH]1 (stereo not shown) [Q-1131] | 0.001 | 0.027 |
| CCC1(C(F)(F)F)CCN(C(=O)c2cnn(-c3nn4cccc4c(=O)[nH]3)c2C)CC1 [Q-1132] | 0.001 | 0.04 |
| Cc1c(C(=O)N2CCN(c3nc(C(F)(F)F)cs3)CC2)cnn1-c1nn2cccc2c(=O)[nH]1 [Q-1134] | 0.003 | 0.025 |

| Structure (SMILES) | IC50 [1] [µM] | IC50 [2] [µM] |
| --- | --- | --- |
| Cc1c(C(=O)N2CCN(c3ncc(-c4ccc(Cl)cc4)o3)CC2)cnn1-c1nn2cccc2c(=O)[nH]1 [Q-1135] | 0.01 | 0.045 |
| Cc1c(C(=O)N2CCC(c3nc(-c4ccncc4)cs3)CC2)cnn1-c1nc2c(c(=O)[nH]1)CCC2 [Q-1136] | 0.002 | 0.014 |
| Cc1c(C(=O)N2CCN(c3nc(C(F)(F)F)co3)CC2)cnn1-c1nn2cccc2c(=O)[nH]1 [Q-1137] | 0.003 | 0.16 |
| Cc1c(C(=O)N2CCN(c3nc(-c4ccc(Cl)cc4)cs3)CC2)cnn1-c1nn2cccc2c(=O)[nH]1 [Q-1138] | 0.02 | 0.36 |
| Cc1c(C(=O)N2CCN(c3nc(-c4ccc(C(F)(F)F)cc4)cs3)CC2)cnn1-c1nn2cccc2c(=O)[nH]1 [Q-1139] | 0.02 | 0.42 |
| Cc1c(C(=O)N2CCN(c3nnc(-c4ccc(Cl)cc4)o3)CC2)cnn1-c1nn2cccc2c(=O)[nH]1 [Q-1140] | 0.008 | 0.23 |
| Cc1c(C(=O)N2CCC(C(CCF)C(F)(F)F)CC2)cnn1-c1nn2cccc2c(=O)[nH]1 (stereo not shown) [Q-1141] | 0.001 | 0.019 |
| Cc1c(C(=O)Nc2c(C(C)(O)C(F)(F)F)cnn2C(C)C)cnn1-c1nn2cccc2c(=O)[nH]1 (stereo not shown) [Q-1142] | 0.001 | 0.075 |
| C=C(c1cnn(C(C)C)c1NC(=O)c1cnn(-c2nn3cccc3c(=O)[nH]2)c1C)C(F)(F)F [Q-1143] | 0.003 | 0.31 |
| Cc1c(C(=O)N2CC(c3ccc(F)nc3)C2)cnn1-c1nn2cccc2c(=O)[nH]1 [Q-1144] | 0.001 | 0.07 |
| Cc1c(C(=O)N2CCN(c3nnc(C(F)(F)F)o3)CC2)cnn1-c1nn2cccc2c(=O)[nH]1 [Q-1145] | 0.003 | 0.19 |
| Cc1c(C(=O)N2CCc3nc(-c4ccc(Cl)cc4)sc3C2)cnn1-c1nn2cccc2c(=O)[nH]1 [Q-1146] | 0.005 | 0.38 |
| Cc1c(C(=O)N2CCc3nc(-c4ccccc4Cl)sc3C2)cnn1-c1nn2cccc2c(=O)[nH]1 [Q-1147] | 0.007 | 0.52 |
| Cc1c(C(=O)N2CCc3nc(-c4ccc(C(F)(F)F)cc4)sc3C2)cnn1-c1nn2cccc2c(=O)[nH]1 [Q-1148] | 0.01 | 0.54 |
| Cc1c(C(=O)N2CCN(c3ncc(-c4ccccc4F)o3)CC2)cnn1-c1nn2cccc2c(=O)[nH]1 [Q-1149] | 0.005 | 0.21 |
| Cc1c(C(=O)N2CCN(c3ncc(-c4ccccc4Cl)o3)CC2)cnn1-c1nn2cccc2c(=O)[nH]1 [Q-1151] | 0.008 | 0.31 |
| Cc1c(C(=O)N2CCN(c3nc(-c4ccccc4Cl)cs3)CC2)cnn1-c1nn2cccc2c(=O)[nH]1 [Q-1152] | 0.008 | 0.38 |
| Cc1c(C(=O)N2CCN(c3nc(-c4ccccc4C(F)(F)F)cs3)CC2)cnn1-c1nn2cccc2c(=O)[nH]1 [Q-1153] | 0.008 | 0.63 |
| Cc1c(C(=O)N2CCN(c3nnc(-c4cccc(Cl)c4)o3)CC2)cnn1-c1nn2cccc2c(=O)[nH]1 [Q-1154] | 0.005 | 0.35 |
| Cc1c(C(=O)N2CCN(c3nc(-c4cccc(Cl)c4)cs3)CC2)cnn1-c1nn2cccc2c(=O)[nH]1 [Q-1155] | 0.01 | 0.27 |
| Cc1c(C(=O)N2CCN(c3nc(-c4cccc(F)c4)cs3)CC2)cnn1-c1nn2cccc2c(=O)[nH]1 [Q-1156] | 0.006 | 0.11 |
| Cc1c(C(=O)N2CCN(c3ncc(-c4cccc(F)c4)o3)CC2)cnn1-c1nn2cccc2c(=O)[nH]1 [Q-1157] | 0.004 | 0.49 |
| Cc1c(C(=O)N2CCc3nc(-c4ccccn4)sc3C2)cnn1-c1nn2cccc2c(=O)[nH]1 [Q-1158] | 0.002 | 0.13 |
